# Data as given in patent US20250122146A1, “COMPOUNDS FOR REDUCING NEUROINFLAMMATION” (THE SCRIPPS RESEARCH INSTITUTE, priority 2021, published 2025).
# Entries after “also recorded” stand apart in the source; their conditions may differ.
# Key:
# [1] = tested on: human iPSC-derived microglia (hiMG); experiment: IL-1β release (NLRP3 inflammasome activation) from hiMG exposed to oligomeric Aβ and αSyn with their antibodies, ELISA; type: cell-based; settings: oligomeric Aβ (~500 nM oligomers) + oligomeric αSyn (~100 nM) with anti-αSyn & anti-Aβ antibodies; carnosic acid 0.1-10 μM; n=3 per group
# Description: (§1) Proinflammatory microglial activation. Following a protocol adapted from D. Trudler et al. (2021), human induced pluripotent stem cell (hiPSC)-derived microglia (hiMG) were plated at a concentration of 1×10^6 cells/mL. 16 h before the experiment the cell medium was changed to IMDM (no supplements added). Carnosic acid (CA, purity >99%) was added 16 hours before the experiment, at a concentration of 2 μM. Recombinant αSyn oligomers (100 nM) and oligomeric Aβ (10 μM) were incubated with 2.5 μg/mL of their respective antibodies for 1 h prior to adding to hiMG for additional 6 hours. Media was collected and cytokine levels, IL-1β or tumor necrosis factor (TNF), were measured by ELISA per the manufacturer's instructions.
# (§2) Carnosic Acid Reduces Neuroinflammation Induced by Antibody-Misfolded Protein Complex. NLRP3 inflammasome activation was assessed by measuring the release of the proinflammatory cytokine interleukin-1β (IL-1β) from hiMG exposed to (A) oligomeric Aβ (500 nM oligomers) and low concentrations of oligomeric αSyn (100 nM), (B) Aβ and αSyn with their cognate human antibodies (anti-Aβ and anti-αSyn, respectively), and (C) same as (B) with carnosic acid.
# [2] = tested on: human iPSC-derived microglia (hiMG); experiment: TNF release from hiMG exposed to oligomeric Aβ and αSyn with their antibodies, ELISA; type: cell-based; settings: oligomeric Aβ (~750 nM oligomers) + oligomeric αSyn (~100 nM) with anti-αSyn & anti-Aβ antibodies; carnosic acid 2 μM; n=3 per group
# Description: as §1, §2
# Nrf2/ARE pathway = settings: literature statement; cited from earlier work
# [3] = tested on: neural damage / oxidative stress; settings: literature statement; cited from earlier work
# [4] = tested on: HSF-1 and Nrf2 transcription pathways; settings: literature statement (Satoh et al. 2015); cited from earlier work
compound,measurement,setting,value
"CC(C)c1cc2c(c(O)c1O)[C@@]1(C(=O)O)CCCC(C)(C)[C@@H]1CC2 [Carnosic acid, carnosic acid]",IL-1β release from hiMG,[1],significantly reduced IL-1β release; also recorded: reduction in IL-1β
same,TNF release from hiMG,[2],significantly reduced TNF release; also recorded: significantly reduced the type of inflammation
same,activation of the Nrf2/ARE pathway,Nrf2/ARE pathway,activates the Nrf2/ARE pathway
same,neuroprotective effect,[3],affording protection against neural damage
same,activation of HSF-1 and Nrf2 transcription pathways,[4],activates both the HSF-1 and Nrf2 transcription pathways
"C=C1CC[C@@H]2C(C)(C)CCCC2(C)C1Cc1cc(O)ccc1O (stereo partly shown) [Zonarol, zonarol]",activation of the Nrf2/ARE pathway,Nrf2/ARE pathway,activate the Nrf2/ARE pathway
same,neuroprotective effect,[3],exert neuroprotective effects against oxidative stress
